{"source": "patent US20160113911A1", "about": "“METHODS AND COMPOSITIONS FOR THE TREATMENT OF CANCER” (THE GENERAL HOSPITAL CORPORATION, priority 2013, published 2016)", "assay_type_in_all_cases": "cell-based, human", "key": {"HEK 293T cells [1]": {"system": "HEK 293T cells", "assay": "MTT proliferation and viability assay", "settings": "JIB-04 vs vehicle, 48h", "experimental": "For tissue culture and generation of stable cell lines see (Black et al., 2010). Rapamycin (LC Laboratories) and AZD8055 (Selleckchem) were used at indicated concentrations. […] JIB-04 (Xcessbio) was used at a final concentration of 250 nM. For the translation assays, DMEM depleted of Methionine and Cysteine (Life Technologies 21013-024) was used.\nMTT assays were performed following supplier's instructions from the Cell Proliferation Kit I™ (MTT) from Roche. Briefly, 1×10^4 cells were seeded per well of a 96 well plate and grown for 24h before treatment. Forty-eight hours later, cells were assayed."}, "HEK 293T cells [2]": {"system": "HEK 293T cells", "assay": "Monitored cell proliferation assay (xCELLigence growth curves, doubling time)", "settings": "HEK293T", "experimental": "Seventy two hours post transfection 1×10^4 HEK 293T cells were seeded per well of a 96 well plate, and then treated after 24h. Cell proliferation was monitored with an xCELLigence system (Roche) (Vistejnova et al., 2009)."}, "overall translation": {"system": "overall translation", "assay": "Translation assay (AHA incorporation, Click-IT)", "settings": "HEK 293T; 24h; 250 nM JIB-04 and 0.1 ng/ml Rapamycin", "experimental": "Translation assays were performed following supplier's instructions from Click-IT™ Metabolic Labeling Reagents for Proteins (Life Technologies). Cells were incubated in presence of DMEM without Cysteine and Methionine for 1 h, then grown in presence of 50 μM AHA (L-azidohomoalanine, Life Technologies C10102) for 2h, harvested and washed extensively with PBS. Cells were lysed in 1% SDS in 50 mM Tris pH8 with 10% Glycerol and sonicated using a bath sonicator (QSonica™ Q800R) for 30 min. The Click-IT reactions were performed following the supplier's instructions from Click-IT™ Protein Reaction Buffer Kit (Life Technologies). Briefly, 50 μg to 100 μg of lysates were used per reaction with 40 μM Alkyne-Biotin (Life Technologies B10185), and 10 μg were assayed by western blot using a Streptavidin antibody conjugated to HRP."}, "translation initiation": {"system": "translation initiation", "assay": "Polysome profiles", "settings": "293T cells"}, "[3]": {"system": "1q12h copy gain in RPE cells", "assay": "FISH for site-specific copy gain", "settings": "RPE cells; 1% O2 24 hours; JIB-04 62.5 nM or 2 mM succinate pre-treatment, or overexpression", "experimental": "FISH was performed as described in (Manning et al., 2010). Probes for 1q12h, 1q telomere, and chromosome 2, 6, 8, and X alpha satellite were purchased from Rainbow Scientific. Probes for 1q12 (RP11-80L2), Xq13.2 (RP11-451A22), Xq13.1 (RP11-177A4) were purchased as BAC clones from Children's Hospital Oakland Research Institute (CHORI BacPac) FISH verified clone repository. Oligonucleotide probes for 1q21.2 (BCL9) and 1q23.3 were purchased from Agilent (SureFISH). BACS were prepared utilizing PureLink HiPure Plasmid Filter Maxiprep kit (Life Technologies) using the recommended modified wash buffer. Probes were nick translated (Abbot Molecular Kit) in the presence of fluorescently labeled dTTP (Enzo Life Science). Images of multiple planes of fields of nuclei were acquired on an Olympus IX81 Spinning Disk Microscope and analyzed using Slidebook 5.0 software. We used a conservative scoring metric for copy gain. Any foci that were touching were scored as a single foci to prevent increased numbers due to normally replicated foci. For RPE cells, copy gain was scored as any cell with 3 or more distinct foci. For 293T cells, copy gain was scored for any cell with 5 or more distinct foci. For RPE cells each experiment includes at least one replicate from the two different polyclonal stable cell preparations. At least 100 cells for each replicate were scored for all experiments except analysis of single cell clones.\nCells were plated onto culture dishes and allowed to adhere for 20-24 hrs in normoxia (5% CO2, 21% O2, and 74% N2). For hypoxic treatment, cells were maintained in a HERA Cell 150™ incubator (Thermo Scientific) flushed with 5% CO2, 1% O2 or 4% O2, and balanced with N2 for the duration of the experiment. Incubator calibrations were carried out by Bianchi Associates Calibrations/Verifications.\nTo release, cells were washed twice with culture medium pre-conditioned in normoxia or hypoxia, and supplied with fresh pre-conditioned media. For JIB-04 treatment, normoxic cells were pre-treated with 62.5 nM JIB-04 (Xcessbio) for 24 hrs, then treated again with JIB-04 and either transferred to 1% O2 or maintained in normoxia for an additional 24 hrs. Succinate was administered at a final concentration of 2 mM and cells were either maintained in normoxia for 72 hrs or maintained in normoxia for 48 hrs prior to being transferred to 1% O2 for 24 hrs.\nFISH was performed as described in (Black et al., 2013; Manning et al., 2010). Probes for 1q12h, 1q telomere, chromosome 8 centromere (alpha satellite), and X centromere (alpha satellite) were purchased from Rainbow Scientific. Probes for Xq13.1 (RP11-177A4), Zebrafish BCL9 (CH73-15J19) and Zebrafish IGBP1 (CH73-223D24) were purchased as BAC clones from Children's Hospital Oakland Research Institute (CHORI BacPac) clone repository. Probes for 1q21.2 (BCL9) and 1q23.3 were purchased from Agilent (SureFISH).\nFISH was performed as described in (Black et al., 2013; Manning et al., 2010). Probes for 1q12h, 1q telomere, chromosome 8 centromere (alpha satellite), and X centromere (alpha satellite) were purchased from Rainbow Scientific. Probes for Xq13.1 (RP11-177A4), Zebrafish BCL9 (CH73-15J19) and Zebrafish IGBP1 (CH73-223D24) were purchased as BAC clones from Children's Hospital Oakland Research Institute (CHORI BacPac) clone repository. Probes for 1q21.2 (BCL9) and 1q23.3 were purchased from Agilent (SureFISH). BACS were prepared utilizing PureLink HiPure™ Plasmid Filter Maxiprep kit (Life Technologies) using the recommended modified wash buffer. Probes were nick translated (Abbot Molecular Kit) in the presence of fluorescently labeled dTTP (Enzo Life Science). Images of multiple planes of fields of nuclei were acquired on an Olympus IX81 T Spinning Disk Microscope and analyzed using Slidebook™ 5.0 software. A conservative scoring metric was used for copy gain. Any foci that were touching were scored as a single copy to prevent increased numbers due to normally replicated foci."}, "KDM4A": {"system": "KDM4A", "assay": "KDM4A protein levels by western blot", "settings": "RPE cells; 1% O2", "experimental": "Western blot analyses were performed according to (Black et al., 2010).\nWestern blots were performed as in (Black et al., 2010). Briefly, adherent cells were either scraped directly into PBS, or washed with PBS, trypsinized and collected by centrifuging at 2,000 RPM for 5 minutes. For preparation of whole-cell lysates, cell pellets were washed once in ice-cold PBS and resuspended in RIPA lysis buffer [50 mM Tris pH 7.4, 150 mM NaCl, 0.25% Sodium Deoxycholate, 1% NP40, 1 mM EDTA, 10% Glycerol] supplemented with complete protease inhibitor and PhosSTOP™ phosphatase inhibitor cocktails (Roche). Cells were lysed on ice for 15 minutes and immediately frozen at −80° C. for 10 min. Lysates were subsequently sonicated at 70% amplitude for 15 minutes in a QSonica Q800R™ and cleared of cell debris by centrifuging at 12,000 RPM for 15 minutes, before being analyzed by western blotting. For HIF1α expression, adherent cells were washed twice with ice-cold PBS and scraped directly in warmed 1× Laemmli buffer. Samples were sonicated at 70% amplitude for 15 minutes and boiled immediately prior to western blotting."}, "RPE cells": {"system": "RPE cells", "assay": "Flow cytometry cell cycle analysis", "settings": "normoxia and hypoxia", "experimental": "Asynchronously growing, or G1/S arrested cells were prepared and fixed as in (Black et al., 2010). Cells were stained with 10 μM EdU for 1 hour prior to collection. Cell cycle was analyzed by PI staining or EdU incorporation using Click-IT EdU™ Flow Cytometry Assay Kit (Life Technologies). Flow cytometry of CD4+ T cells and cell cycle distribution were analyzed using a BD FACS ARIA II™."}}, "note": "“Also recorded” adds a separate entry of the source.", "data": [{"smiles": "Clc1ccc(N/N=C(\\c2ccccc2)c2ccccn2)nc1", "note": "[JIB-04]", "values": [{"measurement": "sensitivity to Rapamycin and AZD8055 upon JIB-04 co-treatment", "setting": "HEK 293T cells [1]", "result": "enhanced the effect of both Rapamycin and AZD8055; also recorded: more sensitive to Rapamycin and AZD8055 than cells treated with vehicle"}, {"measurement": "cell sensitivity to Rapamycin (doubling time between 5 h and 35 h)", "setting": "HEK 293T cells [2]; 250 nM JIB-04 and 1 ng/ml of Rapamycin", "result": "increases cell sensitivity to Rapamycin"}, {"measurement": "cell sensitivity to AZD8055 (doubling time between 5 h and 35 h)", "setting": "HEK 293T cells [2]; 250 nM JIB-04 and 50 nM of AZD8055", "result": "increases cell sensitivity to AZD8055"}, {"measurement": "overall translation with JIB-04 and Rapamycin", "setting": "overall translation", "result": "enhanced the alteration of translation observed after Rapamycin treatment"}, {"measurement": "polysome profile, JIB-04 with Rapamycin", "setting": "translation initiation; JIB-04 250 nM and Rapamycin 0.1 ng/ml", "result": "can sensitize cells to Rapamycin by increasing their translation initiation defect"}, {"measurement": "polysome profile, JIB-04 alone", "setting": "translation initiation; JIB-04 250 and 500 nM", "result": "leads to a translation initiation defect"}, {"measurement": "hypoxia-dependent copy gain of 1q12h", "setting": "[3]", "result": "did significantly reduce hypoxia-dependent copy gain of 1q12h"}, {"measurement": "KDM4A protein levels in hypoxia", "setting": "KDM4A", "result": "did not substantially alter KDM4A protein levels in hypoxia"}, {"measurement": "cell cycle profile", "setting": "RPE cells", "result": "did not result in significant differences in cell cycle between normoxic and hypoxic cells"}]}]}
